From patent publication US11077042B2, “Liquid hair dye composition” (KAO CORPORATION, priority 2017, dated 2021)

Test: pKa of the azo dye
Assay type: physicochemical
Details: assumes blue color by proton dissociation
Description: The liquid hair dye composition of the present invention contain, as component (A), an azo dye represented by Formula (A-2) below (HC Blue 18). The pKa of the azo dye (A-2) is 6.0, and assumes blue color by proton dissociation.

With NS(=O)(=O)c1ccc2nsc(N=Nc3ccc(O)c(Cl)c3)c2c1 [Example A-2, HC Blue 18] the pKa was 6.
